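Interpolation was linear, between the two tested concentrations surrounding the appropriate level; five concentrations were tested over 48 hours in 96-well plates. GI50: concentration for 50% inhibition of growth.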 Activity calls are given as the source filed them. No stated cut-off is given here; in the data, active = GI50 up to about 1.1 µM and inactive = higher.
How the values were obtained:
Assay in all cases: NCI anticancer screen, dose series, 48 h
[1] = tested on: A498
[2] = tested on: ACHN
[3] = tested on: DU-145
[4] = tested on: HCT-116
[5] = tested on: IGROV-1
[6] = tested on: LOX IMVI
[7] = tested on: MCF7
[8] = tested on: MDA-MB-435
[9] = tested on: Malme-3M
[10] = tested on: NCI-H460
[11] = tested on: NCI-H522
[12] = tested on: NCI/ADR-RES
[13] = tested on: PC-3
[14] = tested on: RPMI-8226
[15] = tested on: SK-MEL-5
[16] = tested on: SK-OV-3
[17] = tested on: SNB-75
[18] = tested on: T47D
[19] = tested on: UACC-62
[20] = tested on: UO-31

Row | Structure (SMILES) | GI50 [1] | GI50 [2] | GI50 [3] | GI50 [4] | GI50 [5] | GI50 [6] | GI50 [7] | GI50 [8] | GI50 [9] | GI50 [10] | GI50 [11] | GI50 [12] | GI50 [13] | GI50 [14] | GI50 [15] | GI50 [16] | GI50 [17] | GI50 [18] | GI50 [19] | GI50 [20]
1 | Cc1cccc(NC(=S)N/N=C(/c2ccccc2)c2ccccn2)c1 | 1.98 µM (inactive) | 0.044 µM (active) | 0.942 µM (active) | < 0.0131 µM (active) | < 0.0182 µM (active) | 0.0224 µM (active) | < 0.0172 µM (active) | 0.574 µM (active) | 0.174 µM (active) | 0.159 µM (active) | 1.09 µM (active) | 0.138 µM (active) | < 0.0143 µM (active) | < 0.0182 µM (active) | 0.108 µM (active) | 0.038 µM (active) | 0.991 µM (active) | 0.0579 µM (active) | 0.267 µM (active) | 0.385 µM (active)
2 | O=S(=O)(O)c1cc(S(=O)(=O)O)c2c(Nc3ccnc4ccccc34)ccc(S(=O)(=O)O)c2c1 | > 100 µM (inactive) | > 100 µM (inactive) | > 100 µM (inactive) | > 100 µM (inactive) | > 100 µM (inactive) | > 100 µM (inactive) | > 100 µM (inactive) | > 100 µM (inactive) | > 100 µM (inactive) | > 100 µM (inactive) | > 100 µM (inactive) | > 100 µM (inactive) | > 100 µM (inactive) | > 100 µM (inactive) | > 100 µM (inactive) | > 100 µM (inactive) | > 100 µM (inactive) | > 100 µM (inactive) | > 100 µM (inactive) | > 100 µM (inactive)
3 | Nc1ccc2nc3n(c(=O)c2c1)CCCCC3 | > 100 µM (inactive) | > 100 µM (inactive) | > 100 µM (inactive) | > 100 µM (inactive) | > 100 µM (inactive) | > 100 µM (inactive) | > 100 µM (inactive) | > 100 µM (inactive) | > 100 µM (inactive) | > 100 µM (inactive) | > 100 µM (inactive) | > 100 µM (inactive) | > 100 µM (inactive) | > 100 µM (inactive) | > 100 µM (inactive) | > 100 µM (inactive) | > 100 µM (inactive) | > 100 µM (inactive) | > 100 µM (inactive) | > 100 µM (inactive)
4 | Cc1c(CCCl)c(N=[N+]=[N-])n2c(nc3ccccc32)c1C#N | 1.64 µM (inactive) | 1.22 µM (inactive) | 2.24 µM (inactive) | 0.498 µM (active) | 1.01 µM (active) | 0.902 µM (active) | 0.47 µM (active) | 1.43 µM (inactive) | 1.45 µM (inactive) | 1.39 µM (inactive) | 0.163 µM (active) | 1.69 µM (inactive) | 1.42 µM (inactive) | 0.385 µM (active) | 0.491 µM (active) | 2.11 µM (inactive) | 1.46 µM (inactive) | 0.839 µM (active) | 1.34 µM (inactive) | 1.65 µM (inactive)
5 | CCCCOc1ccc(NC(=N)Nc2ccc(Cl)cc2)cc1 | 0.443 µM (active) | 0.462 µM (active) | 0.462 µM (active) | 0.421 µM (active) | 1.22 µM (inactive) | 3.05 µM (inactive) | 0.135 µM (active) | 11.1 µM (inactive) | 3.47 µM (inactive) | 3.7 µM (inactive) | 5.86 µM (inactive) | 2.28 µM (inactive) | 2.06 µM (inactive) | 3.89 µM (inactive) | 0.284 µM (active) | 10.6 µM (inactive) | 4.47 µM (inactive) | 0.474 µM (active) | 12.3 µM (inactive) | 2.43 µM (inactive)
6 | CCC1c2[nH]c3ccccc3c2C[C@H]2C(=O)NC(COC(C)(C)C)C(=O)N12 (stereo not given in full) | 72.3 µM (inactive) | 42 µM (inactive) | 67.6 µM (inactive) | 41.6 µM (inactive) | 29.8 µM (inactive) | 37.3 µM (inactive) | 41.8 µM (inactive) | 37.7 µM (inactive) | 21.7 µM (inactive) | 31.2 µM (inactive) | 38.5 µM (inactive) | 40.7 µM (inactive) | 28.5 µM (inactive) | 32.4 µM (inactive) | 27.8 µM (inactive) | 63 µM (inactive) | 19.8 µM (inactive) | 44.9 µM (inactive) | 53.3 µM (inactive) | 38.2 µM (inactive)
7 | COC(=O)/C=C1/OC(c2ccc(C)cc2)=C(Cl)C1=O | 17.9 µM (inactive) | 16.7 µM (inactive) | 17.7 µM (inactive) | 11.7 µM (inactive) | 16.5 µM (inactive) | 9.2 µM (inactive) | 16.1 µM (inactive) | 17.8 µM (inactive) | 17.7 µM (inactive) | 22 µM (inactive) | 9.4 µM (inactive) | 22.1 µM (inactive) | 13.8 µM (inactive) | 3.18 µM (inactive) | 14.5 µM (inactive) | 24.2 µM (inactive) | 16.7 µM (inactive) | 15.3 µM (inactive) | 17.1 µM (inactive) | 17.5 µM (inactive)
8 | CCOC(CN(C)C(=S)Nc1cccc2ccccc12)OCC | 6.95 µM (inactive) | > 10 µM (inactive) | > 10 µM (inactive) | > 10 µM (inactive) | > 10 µM (inactive) | > 10 µM (inactive) | > 10 µM (inactive) | > 10 µM (inactive) | > 10 µM (inactive) | > 10 µM (inactive) | > 10 µM (inactive) | > 10 µM (inactive) | > 10 µM (inactive) | > 10 µM (inactive) | > 10 µM (inactive) | > 10 µM (inactive) | > 10 µM (inactive) | > 10 µM (inactive) | > 10 µM (inactive) | > 10 µM (inactive)
9 | Cc1nc2ccccc2c(=O)n1/N=C(\N=N\c1cc(Cl)ccc1Cl)c1ccccc1 | > 94.2 µM (inactive) | > 84.9 µM (inactive) | > 100 µM (inactive) | 17.4 µM (inactive) | 44.6 µM (inactive) | 40.6 µM (inactive) | 8.04 µM (inactive) | 21.3 µM (inactive) | 41 µM (inactive) | 45.8 µM (inactive) | 29.9 µM (inactive) | 26.6 µM (inactive) | 55.3 µM (inactive) | 41.4 µM (inactive) | 36.2 µM (inactive) | > 63 µM (inactive) | 16.1 µM (inactive) | > 100 µM (inactive) | 45.8 µM (inactive) | 22.9 µM (inactive)
10 | CCOC(=O)C1(C(N)=O)C(=O)c2ccncc2C1=O (stereo not given) | > 100 µM (inactive) | > 100 µM (inactive) | > 100 µM (inactive) | > 100 µM (inactive) | > 100 µM (inactive) | > 100 µM (inactive) | > 100 µM (inactive) | > 100 µM (inactive) | > 100 µM (inactive) | > 100 µM (inactive) | > 100 µM (inactive) | > 100 µM (inactive) | > 100 µM (inactive) | > 100 µM (inactive) | > 100 µM (inactive) | > 100 µM (inactive) | > 100 µM (inactive) | > 100 µM (inactive) | > 100 µM (inactive) | > 100 µM (inactive)
11 | OCC1OC(c2n[nH]c3c(O)ncnc23)C(O)C1O (stereo not given) | 30.1 µM (inactive) | 4.01 µM (inactive) | 1.48 µM (inactive) | 7.28 µM (inactive) | 18.4 µM (inactive) | 3.92 µM (inactive) | 28.7 µM (inactive) | 34.4 µM (inactive) | 16.1 µM (inactive) | 10.6 µM (inactive) | 10.2 µM (inactive) | 4.22 µM (inactive) | 6.68 µM (inactive) | 21.9 µM (inactive) | 21.5 µM (inactive) | 2.89 µM (inactive) | > 100 µM (inactive) | 4.72 µM (inactive) | 31.6 µM (inactive) | 8.79 µM (inactive)
12 | CC(=O)OC1=CC2(OC(C)=O)CC(C)(C)C1C1C(=O)C=CC(=O)C12 (stereo not given) | 72.8 µM (inactive) | 20.1 µM (inactive) | > 100 µM (inactive) | > 51.3 µM (inactive) | > 50.7 µM (inactive) | > 42.1 µM (inactive) | 32.7 µM (inactive) | 22.9 µM (inactive) | 17.6 µM (inactive) | > 62.8 µM (inactive) | > 36.5 µM (inactive) | 49.8 µM (inactive) | 57.8 µM (inactive) | > 66.8 µM (inactive) | > 85.3 µM (inactive) | > 100 µM (inactive) | > 64.6 µM (inactive) | 49.4 µM (inactive) | 15.7 µM (inactive) | > 70 µM (inactive)
13 | COC1=CC(=O)c2c(cc(COP(N)(=O)N(CCBr)CCBr)n2C)C1=O (stereo not given) | 1.26 µM (inactive) | < 0.01 µM (active) | < 0.01 µM (active) | < 0.01 µM (active) | 0.0188 µM (active) | < 0.01 µM (active) | < 0.01 µM (active) | 1.16 µM (inactive) | 0.308 µM (active) | < 0.01 µM (active) | < 0.01 µM (active) | 0.184 µM (active) | 1.11 µM (active) | < 0.01 µM (active) | 0.418 µM (active) | 0.0137 µM (active) | < 0.01 µM (active) | < 0.01 µM (active) | < 0.01 µM (active) | 0.131 µM (active)
14 | c1ccc(COc2ccc(C[P+](c3ccccc3)(c3ccccc3)c3ccccc3)cc2)cc1 | 1.1 µM (active) | 0.676 µM (active) | 0.304 µM (active) | 0.104 µM (active) | 0.294 µM (active) | 0.251 µM (active) | 0.1 µM (active) | 0.225 µM (active) | 0.361 µM (active) | 0.225 µM (active) | 0.195 µM (active) | 13.4 µM (inactive) | 0.131 µM (active) | 0.0257 µM (active) | 0.108 µM (active) | 0.287 µM (active) | 0.148 µM (active) | < 0.0175 µM (active) | 0.195 µM (active) | 2.94 µM (inactive)
